The values below come from patent US11420976B2 (priority 2020, dated 2022).

Assay [1] relates to HRSV. The note with it: high risk infants, prophylactic use; cited from earlier work.
Assay [2] has as its system Human RSV-A (“Long” strain). As to the kind of experiment: RSV-A assay (CPE, ATPlite readout in Hep-2 cells). The format is cell-based. The note with it: human respiratory syncytial virus, 120 h; Hep-2 cells, MOI 0.1, 5-day incubation, ATPlite; read-out: Human RSV-A (“Long” strain) EC50. The procedure, abridged:
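Hep-2 cells (8,000/well) infected with RSV-A Long at MOI 0.1 in the presence of 2-fold compound dilutions, in duplicate. After 5 days, protection from cytopathic effect read as cellular ATP by ATPlite luminescence, with virus-only and cell-only controls; EC50 reported.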
For orientation: ATP-based viability assays read luminescence as a measure of living cells.

Assay [3] relates to rHMPV-GFP (recombinant HMPV CAN97-83, MPV-GFP1). The assay can be described thus: HMPV antiviral assay (eGFP fluorescence in Vero E6 cells). The format is cell-based. The note with it: Vero C1008, 120 h, read-out: rHMPV-GFP EC50. Here is the method:
HMPV antiviral activity was evaluated using a recombinant version of HMPV CAN97-83 engineered to contain the coding sequence for enhanced green fluorescence protein (eGFP) in the 3′ end of the virus genome (MPV-GFP1, ViraTree). Vero E6 cells (ATCC #CCL-7) were seeded at a density of 12,000 cells/100 μL/well into 96-well cell plates (VENDOR) one day prior to the assay. On the day of screening, the cell culture medium was aspirated from the wells and cells were washed twice with serum-free Eagle's Modified Essential Medium (EMEM, ATCC #) containing 1% penicillin-streptomycin (Invitrogen) (SF-EMEM). Cell washes were performed by dispensing 100 μL SF-EMEM per well and immediately aspirating the wash medium from the well. Following the second wash step, serum-free OptiMEM (Invitrogen, Cat No.) (SF-OptiMEM) containing 0.5 μg/mL TPCK-Trypsin (VENDOR) and 1% penicillin-streptomycin was added to the cells at 50 μL/well. Compounds were added into the 96-well plates using a JANUS automated liquid handling system (VENDOR). Compounds were initially diluted 1:50 into an intermediate 96-well plate containing SF-OptiMEM prior to transfer to the assay plate (25 μL/well). Each of the test compounds was tested in duplicate wells at final concentrations starting from 8 μM or 2 μM using ½ stepwise dilutions for a total of 8 points. Virus infection was performed by preparing a working stock of MPV-GFP1 at a multiplicity of infection (MOI) equal to 0.05/25 μL and aliquoting 25 μL of virus inoculum to the compound and positive control wells. SF-OptiMEM was added (25 μL/well) to the appropriate wells to serve as a virus-free negative control for the assay. The final DMSO concentration of all wells is 0.5%. Plates were incubated at 32° C., 5% CO2 for 5 days. After 5 days incubation, eGFP fluorescence intensity was measured at […] using a Spectramax i3X plate reader (VENDOR). Percent viral inhibition was calculated using the following equation: y=[[…]]×100 Where XQ is the fluorescence intensity measured in a well containing recombinant MPV-GFP1-infected, compound-treated cells and XP is the average fluorescence intensity measured in the wells containing untreated cells infected with recombinant virus. EC50 values were then calculated by non-linear regression using a four parameter curve logistic equation. The curve fit model employed was XLFit Dose Response One Site Model 200: y=(A+(B/(1+((x/C)^D)))) Where A is the minimum y value, B is the maximum y value, C is the log EC50 value, and D is the slope factor. The EC50 of each compound is listed in Table 2 and EC50 ranges are as follows: A<0.2 μM; B≥0.2 μM.

What is called EC50 is the concentration needed to bring the measured effect to its halfway point.

Regarding Palivizumab, the “effective in reducing hospitalizations” value in assay [1] was 60%.

With `COc1cc(C(=O)NC[C@](O)(c2cc3c(c(-c4ccc(F)cc4)n2)OC[C@@]3(N)C(F)(F)F)C2CC2)cc2cccnc12` [Example 10], the EC50 in assay [2] is under 200 nM; in assay [3], over 200 nM. Turning to `COc1cc(C(=O)NC[C@](C)(O)c2cc3c(c(-c4ccc(F)c(Cl)c4)n2)OC[C@@]3(N)C(F)(F)F)ccc1OC1CC1` [Example 24, N—((S)-2-((R)-3-amino-7-(3-chloro-4-fluorophenyl)-3-(trifluoromethyl)-2,3-dihydrofuro[2,3-c]pyridin-5-yl)-2-hydroxypropyl)-4-cyclopropoxy-3-methoxybenzamide], the EC50 in assay [2] and in assay [3] was under 200 nM in each case. Regarding `C[C@](O)(CNC(=O)c1ccc(OC2CC2)c(OC2CC2)c1)c1cc2c(c(-c3ccc(F)cc3)n1)OC[C@@]2(N)C(F)(F)F` [Example 20, N—((S)-2-((R)-3-amino-7-(4-fluorophenyl)-3-(trifluoromethyl)-2,3-dihydrofuro[2,3-c]pyridin-5-yl)-2-hydroxypropyl)-3,4-dicyclopropoxybenzamide], the EC50 in assay [2] and in assay [3] was under 200 nM in each case.

For `COc1cc(C(=O)NC[C@](O)(c2cc3c(c(-c4ccc(F)cc4)n2)OC[C@@]3(N)C(F)(F)F)C(F)(F)F)cc2cccnc12` [Example 5, N—((S)-2-((R)-3-amino-7-(4-fluorophenyl)-3-(trifluoromethyl)-2,3-dihydrofuro[2,3-c]pyridin-5-yl)-3,3,3-trifluoro-2-hydroxypropyl)-8-methoxyquinoline-6-carboxamide], the EC50 in assay [2] is under 200 nM; in assay [3], over 200 nM.
